Consider 1 compound from patent publication US9987381B2, “Radioligands for imaging the LPA-1 receptor” (BRISTOL-MYERS SQUIBB COMPANY, priority 2013, dated 2018).

By IC50 is commonly meant the concentration needed to halve the response being measured. As a reminder, the Kd is the free concentration of one partner at which half of the binding sites on the other are occupied at equilibrium, for simple one-to-one binding. For orientation: ED50 means the midpoint of the dose-response relation. As a reminder, the fraction unbound is free concentration divided by total concentration.

Read-outs that look alike come from different tables or passages of the source.

What all share (assay type): in vivo, rhesus monkeys
The target in series [1] is T1, LPA1 (Macaca mulatta, UniProt H9EN64).
T1 construct: from tissue; host or cells: lung of living anaesthetised rhesus monkeys (in vivo PET)
Put plainly: PET saturation study of [11C]-BMT-136088 in lung (bolus plus infusion, VT by MA1/EA). The settings on record: for ED50: rhesus monkey. Here is the method: (§1) This study was divided in two parts: First, the test-retest variability of [^11C]-BMT-136088 binding in a within-day protocol. Second, a saturation study was performed to evaluate the fraction of specific and non-specific binding for the radiotracer [^11C]-BMT-136088, the in vivo equilibrium dissociation constant KD, and the radiopharmaceutical tracer-dose limit (to achieve less than 5% self-occupancy).
In the saturation study, each animal was scanned twice a day, with varying mass of [^11C]-BMT-136088, from tracer dose to near-saturating doses. The interval between the two scans was the same as in the blocking study and test-retest study. For the first scans, tracer doses were used in 3 out of 4 study days. On the fourth day, the first scan dose was not performed at tracer dose, but the mass of the first dose scan was substantially lower than the second dose to minimize the influence of the first injection on the second scan data.
(§2) Two rhesus monkeys were included in the blocking, test-retest, and saturation studies: one male, one female; age=4.8±0.8 y; weight=8.6±0.4 kg. Studies in the same animal were separated by at least 2 weeks to allow the animal to recover from anesthesia and other effects. Four rhesus monkeys (2M, 2F) were included in the dosimetry study.
(§3) Following a low-dose, CT scan used for attenuation correction and to delineate the lung regions of interest, [^11C]-BMT-136088 was injected using a computer-control pump with a bolus plus infusion protocol, with an initial 1-min bolus and a ˜119-min infusion. The volume injected during the initial bolus represented 100 min (Kbol) worth of infusion in the blocking and test-retest study, and 300 min worth of infusion in the saturation study.
(§4) Beginning at the start of each injection, a 120-minute time-of-flight list-mode acquisition on the mCT PET/CT scanner (Siemens Medical Solutions USA, Inc.) was performed. Dynamic PET scan data were reconstructed with corrections for point-spread function, attenuation, normalization, scatter, randoms, and dead time using a 3D OP-OSEM TOF algorithm. PET images were reconstructed into 33 frames, with the following frame timing: 6×30 sec; 3×1 min; 2×2 min; 22×5 min. Each frame contained 400×400×111 (x,y,z) voxels (2.04×2.04×2.0 mm).
The lungs were semi-automatically delineated using CT images collected before each PET scan. • First, the lungs were segmented based on the CT image values in Hounsfield scale (−1000<HU<−200), using a region growing algorithm and seeds manually placed at the center of the lungs; • The trachea, and occasionally the air in the stomach were manually excluded from the segmentation results; • The segmented lung ROIs were divided into right and left ROIs by manually selecting a plane separating the left and right side of the animal (animals were lying in supine position, but this plane was not always perfectly vertical); • The right and left ROIs were further divided into three smaller ROIs: lower lung, mid lung, and upper lung. The upper lung was defined as the part of the lung above the heart; the lower lung was defined as the part of the lung that is less than 5 slices (˜1 cm) above the topmost axial slice where the top of the liver can be seen.
The lung time-activity curves (TACs) were computed for each ROI and expressed in kBq/cm^3. The lung ROI contains lung tissue, blood, and air. In particular, the lung density may change from scan to scan due to (slight) changes in animal positioning, which can change the left-right location of the heart and change which lung tends to be compressed by the heart. Therefore an estimate of the density of lung ROIs was estimated to convert the TAC units from kBq/cm^3 to kBq/g, as follows. The CT images were converted from Hounsfield scale to linear attenuation values (in cm^−1) for 511 KeV photons. These attenuation values were assumed to be linearly proportional to mass for soft tissue (e.g., lung and heart) and the heart density was assumed to be 1 g/cm^3. […]

The target of series [2] is T1, LPA1. Put plainly: PET test-retest study of [11C]-BMT-136088 binding. On the procedure: as §1
In the test-retest study, each animal was scanned twice per day, with the same interval between the two scans as in the blocking study, to measure the variability of [^11C]-BMT-136088 binding parameter and assess if there was a systematic difference in binding parameters between the two scan times (for example due to the prolonged anesthesia). The study was performed in the same animals as the blocking study.
as §2, §3
Beginning at the start of each injection, a 120-minute time-of-flight list-mode acquisition on the mCT PET/CT scanner (Siemens Medical Solutions USA, Inc.) was performed. Dynamic PET scan data were reconstructed with corrections for point-spread function, attenuation, normalization, scatter, randoms, and dead time using a 3D OP-OSEM TOF algorithm. PET images were reconstructed into 33 frames, with the following frame timing: 6×30 sec; 3×1 min; 2×2 min; 22×5 min. Each frame contained 400×400×111 (x,y,z) voxels (2.04×2.04×2.0 mm). […]

In series [3] the target is T1, LPA1. The series is described as follows: PET blocking study of [11C]-BMT-136088 with BMS-986020. The settings on record: from BPND 1.1±0.1. Here is the method: For the blocking data reanalyzed here, each animal was scanned twice during the administration of [^11C]-BMT-136088, using a bolus plus infusion (B+I) protocol: at baseline first, then during the administration of the blocking drug, BMS-986020, also using a bolus plus infusion protocol.
In the blocking study, BMS-986020 was administered i.v. using a 10-min bolus ([…]) followed by a ˜230 min infusion (0.25 mg/kg/hr) for a total dose of 1.224±0.015 mg/kg.
as §2, §3, §4
Blood samples for PK for each blockade study session were obtained at −1, 60, 90, 120, 150, 210, 240 and 270 minutes after the start of BMS-986020 bolus plus infusion. Red cells were precipitated at 3200 rpm for 10 minutes at 10° C.; the plasma was divided into two aliquots and frozen at −80° C. until shipped for analysis. […]

Series [4] is described as follows: Plasma concentration and plasma free fraction in saturation study. Here is the method:
as §2
Blood samples were also collected for the last three saturation studies at −5, 60, 90 and 120 minutes after the start of [^11C]-BMT-136088 bolus plus infusion with non-tracer doses (n=4). Red cells were precipitated at 3200 rpm for 10 minutes at 10° C.; the plasma was divided into two aliquots and frozen at −80° C. until shipped for analysis. The goal of these measurements was to compare the plasma concentrations estimated from measurements of [^11C]-BMT-136088 and its metabolism using gamma counters and HPLC systems, to that from measurement of unlabeled BMT-136088 using mass spectrometry.

T1 sequence (H9EN64 1-364): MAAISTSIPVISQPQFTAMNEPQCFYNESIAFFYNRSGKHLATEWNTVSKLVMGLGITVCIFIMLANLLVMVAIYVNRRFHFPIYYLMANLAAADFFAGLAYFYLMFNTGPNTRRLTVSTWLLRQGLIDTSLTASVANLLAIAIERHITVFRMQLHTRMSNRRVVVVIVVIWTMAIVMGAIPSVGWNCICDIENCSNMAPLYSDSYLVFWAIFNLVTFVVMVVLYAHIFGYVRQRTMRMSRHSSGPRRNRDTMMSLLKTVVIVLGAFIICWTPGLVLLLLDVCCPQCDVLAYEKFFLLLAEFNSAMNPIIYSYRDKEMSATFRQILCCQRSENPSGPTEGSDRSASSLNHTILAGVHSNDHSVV

On to `Cc1noc(-c2ccc(-c3ccc(C4(C(=O)O)CC4)cc3)cc2)c1NC(=O)O[C@H](C)c1cccc([11CH3])c1` [[^11C]-BMT-136088, [11C]-(R)-1-(4′-(3-Methyl-4-(((1-(m-tolyl)ethoxy)carbonyl)amino)isoxazol-5-yl)-[1,1′-biphenyl]-4-yl)cyclopropanecarboxylic acid], for which the half-maximal inhibitory concentration (IC50) at LPA1 [1] (MA1 and all corrections, VT versus plasma concentration) turned out to be 28 ± 12 nM. On LPA1 [1] (MA1 with all corrections, lung), the “binding potential BPND” value came out at 1.1±0.1. Moreover, the “fraction of tracer in lung (excluding blood) specifically bound to LPA1 sites” value on LPA1 [1] (at equilibrium) was “about 50%”. On LPA1 [1] (from plasma IC50 and plasma free fraction, read-out: in vivo KD), the Kd was determined as 0.055 nM. Besides, the ED50 on LPA1 [1] (MA1 with all corrections, read-out: ED50) was 0.036 ± 0.015 mg/kg; on LPA1 [1] (all ED50 estimates, range over analysis methods, read-out: ED50 estimates (all methods)) it was 0.036 to 0.056 mg/kg. Besides, on LPA1 [1] (to occupy less than 5% of LPA1 sites, based on ED50), the tracer dose limit came out at 0.0019 mg/kg. Besides, the test-retest variability at LPA1 [2] (EA, density and blood activity corrections, left ROIs mid and upper lung) is recorded as −2±10%; at LPA1 [2] (EA, density and blood activity corrections, right ROIs mid and upper lung) it was −1±11%; on LPA1 [2] (MA1, animal A2, left ROIs mid and upper lung), −5%; at LPA1 [2] (MA1, animal A2, right ROIs mid and upper lung), −8%. The “maximum expected blockade effect” value at LPA1 [3] is 52%. This compound also returned a fraction unbound in series [4] (both sexes, rhesus monkey, plasma, intravenous, measured during the saturation studies) of 0.002. The “slope of plasma concentration vs injected mass” value in series [4] (saturation study, linear increase) was 0.92 nM/(μg/kg).
